Assay results as given in PubChem BioAssay (NCI).
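Assay format: 96-well plates, 48-hour exposure. TGI: concentration producing complete growth inhibition.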

Tests used:
Assay in all cases: NCI tumour cell line growth inhibition, 48 h
786-0 renal = test system: 786-0 renal
ACHN renal = test system: ACHN renal
CAKI-1 renal = test system: CAKI-1 renal
HCT-116 colon = test system: HCT-116 colon
HOP-92 NSCLC = test system: HOP-92 NSCLC
K-562 leukemia = test system: K-562 leukemia
KM12 colon = test system: KM12 colon
MALME-3M melanoma = test system: MALME-3M melanoma
OVCAR-3 ovarian = test system: OVCAR-3 ovarian
RPMI-8226 leukemia = test system: RPMI-8226 leukemia

Structure (SMILES) | TGI (786-0 renal) [µM] | TGI (ACHN renal) [µM] | TGI (CAKI-1 renal) [µM] | TGI (HCT-116 colon) [µM] | TGI (HOP-92 NSCLC) [µM] | TGI (K-562 leukemia) [µM] | TGI (KM12 colon) [µM] | TGI (MALME-3M melanoma) [µM] | TGI (OVCAR-3 ovarian) [µM] | TGI (RPMI-8226 leukemia) [µM]
COc1ccc(N2CCN(c3ccc4c(c3)NCC(=O)N4)CC2)cc1 | > 100 | > 100 | > 100 | > 100 | 63.5 | > 100 | 49 | > 100 | > 100 | 67.5
COCC(=O)[C@]1(O)Cc2c(O)c3c(c(O)c2[C@@H](OC2CC(N)C(O)C(C)O2)C1)C(=O)c1c(OC)cccc1C3=O (some centres not stated) | 12.2 |  | 0.422 | 1.08 | 1.12 | 0.785 | 0.357 | 0.335 | 0.536 | 0.564
O=C1Nc2ccccc2NC1C1OC(c2ccccc2)=CC1=O (configuration not stated) | > 100 | > 100 | > 100 | > 100 | > 100 | > 100 | > 100 | > 100 | > 100 | > 100
CCCCCC(/C=C/[C@@H]1CC(=O)C[C@H]1O[Si](C)(C)C(C)(C)C)OCOCCOC (some centres not stated) | 14.3 | 8.76 | 7.87 | 13.5 | 6.03 | 6.43 | 8.96 | 5.32 | 11.3 | 6.42
CCOC(OCC)C(CCc1ccccc1)c1c(N)nc(N)[nH]c1=O (configuration not stated) | > 100 |  | > 100 | > 100 | 86.8 | 84.7 | > 100 | > 100 | > 100 | > 100
O=C(c1ccc(Cl)cc1)N1N=C(c2ccc(Cl)cc2)CC1(O)c1cc(F)c(Cl)cc1Cl (configuration not stated) | > 100 | 62.2 | 39.6 | 26.4 | 51.3 | > 100 | 21.7 | > 100 | 55.6 | 40.3
Brc1cccc(C2(CCCC3(c4cccc(Br)n4)OCCO3)OCCO2)n1 | > 100 | > 100 | > 100 | > 100 | > 100 | > 100 | > 100 |  | > 100 | > 100
COC(=O)C1(NC(=O)C(N)CC(=O)O)C(C)C1C (configuration not stated) | > 100 | > 100 | > 100 | > 100 | > 100 | > 100 | > 100 | > 100 | > 100 | > 100
CC(C)(C)OC(=O)NC(CCCCNC(=O)OCc1ccccc1)C(=O)NC(CCCCNC(=O)OCc1ccccc1)C(=O)ON1C(=O)CCC1=O (configuration not stated) | > 100 |  |  | > 100 | > 100 | > 100 | > 100 | > 100 |  | > 100
Oc1[nH]c2ccccc2c1N=NC(=S)N1CCCCCC1 | 2.63 | 8.73 | 4.62 | 1.9 | 6.55 |  | 2.22 | 3.02 | 1.49 | 4.15
CC(=O)Oc1ccc(OC(Oc2ccccc2)c2ccccc2)cc1 (configuration not stated) | 57.8 | 72.1 | 55.7 | 59 | 34.9 | > 100 | 58.7 | 52.9 | 49.5 | 
Cc1ccc(S(=O)(=Nc2ccccc2)C(C(C)C)C(C)(C)Cl)cc1 (configuration not stated) | > 50 | > 50 | > 50 | > 50 | > 50 | > 50 | > 50 | > 50 | > 50 | > 50
O=C1c2ccccc2C(=O)N1C(=S)c1ccccc1 | > 100 | > 100 | > 100 | > 100 | > 100 | > 100 | > 100 | > 100 | > 100 | > 100
CCN(CC)C(=S)SNCCc1ccc(S(N)(=O)=O)cc1 | 27.8 | 34.3 | 29 | 26.4 | 35.1 | > 100 | 37.6 | 24.3 | 43.9 | 38.6
O=C(Nc1ccc2ccccc2c1)Nn1cnnc1 | > 100 | > 100 | > 100 | > 100 | > 100 | > 100 | > 100 | > 100 | > 100 | > 100
CCOC(=O)/C=C(/C(=O)OCC)n1c(=O)c(C)cn(C2CC(N=[N+]=[N-])C(CO)O2)c1=O (configuration not stated) | 72 | > 100 | 83.9 | > 100 | 76.6 | > 100 | > 100 | > 100 | 50.3 | 49
ClCc1c(-c2ccccc2)nn(-c2ccccc2)c1CCl | 22 |  | 3.71 | 25.1 | 7.69 |  | 32.7 | 30.6 | 26.3 | 7.86
[N-]=[N+]=C1CNC(=O)NC1=O | > 100 | > 100 | > 100 | > 100 | > 100 | > 100 | > 100 | > 100 | > 100 | > 100
Cc1nnc(N)nc1/C=C\c1cccs1 | 52.1 | 33.1 | > 100 | 35.5 | 97.8 | 59.7 | 31.5 | 29.4 |  | 55.4
CC1CCC2c3c([nH]c4ccccc34)C3C(=O)N(C4CCCCC4)C(=O)C3C2C1 (configuration not stated) | 19.6 | 27.8 | 30.8 | 24.2 | 44.9 | 47.2 |  | > 100 | 39.8 | > 100
C1OCN2c3nonc3N3COCN4c5nonc5N1C2C43 (configuration not stated) | > 100 | > 100 | > 100 | > 100 | > 100 | > 100 | > 100 | > 100 | > 100 | > 100
N=C1N=C(N)c2cc3c(cc21)SCCSCCCSCCS3 | 32.6 | 28.2 | > 63.4 | 23.6 | > 54.7 | 31.8 | 26.7 | 44.4 | 28.4 | 
